In patent publication US10131675B2 (Genentech, Inc., priority 2015, dated 2018):

Each molecule was assayed against DLK (Homo sapiens (Human), UniProt Q12852) (assay: DLK TR-FRET Inhibition Assay). Conditions: N-terminally GST-tagged DLK (catalytic domain amino acid 1-520), MKK4 K131M substrate, 30 μM ATP; read-out: DLK HTRF Ki.
Type: biochemical
Experimental: DLK kinase reactions (20 μL) containing 5 nM N-terminally GST-tagged DLK (catalytic domain amino acid 1-520) (Carna Bioscience), 40 nM N-terminally HIS tagged MKK4 K131M substrate, and 30 μM ATP in kinase reaction buffer (50 mM HEPES, pH 7.5, 0.01% Triton X-100, 0.01% Bovine γ-Globulins, 2 mM DTT, 10 mM MgCl2 and 1 mM EGTA), and testing compound 1:3 serial diluted starting at 20 uM were incubated at ambient temperature for 60 minutes in 384 well OptiPlate (Perkin Elmer). To quench kinase reactions and detect phosphorylated MKK4, 15 μL of TR-FRET antibody mixture containing 2 nM anti-phosphorylated MKK4 labeled with Europium cryptate (Cisbio) and 23 nM anti-HIS labeled with D2 (Cisbio) in detection buffer (25 mM Tris pH 7.5, 100 mM NaCl, 100 mM EDTA, 0.01% Tween-20, and 200 mM KF) was added to the reaction mixture. The detection mixture was incubated for 3 hours at ambient temperature and the TR-FRET was detected with an EnVision multilabel plate reader (Perkin-Elmer) using the LANCE/DELFIA Dual Enh label from Perkin-Elmer (excitation filter: UV2 (TRF) 320 and emission filters: APC 665 and Europium 615).

DLK, sequence (Q12852 1-520): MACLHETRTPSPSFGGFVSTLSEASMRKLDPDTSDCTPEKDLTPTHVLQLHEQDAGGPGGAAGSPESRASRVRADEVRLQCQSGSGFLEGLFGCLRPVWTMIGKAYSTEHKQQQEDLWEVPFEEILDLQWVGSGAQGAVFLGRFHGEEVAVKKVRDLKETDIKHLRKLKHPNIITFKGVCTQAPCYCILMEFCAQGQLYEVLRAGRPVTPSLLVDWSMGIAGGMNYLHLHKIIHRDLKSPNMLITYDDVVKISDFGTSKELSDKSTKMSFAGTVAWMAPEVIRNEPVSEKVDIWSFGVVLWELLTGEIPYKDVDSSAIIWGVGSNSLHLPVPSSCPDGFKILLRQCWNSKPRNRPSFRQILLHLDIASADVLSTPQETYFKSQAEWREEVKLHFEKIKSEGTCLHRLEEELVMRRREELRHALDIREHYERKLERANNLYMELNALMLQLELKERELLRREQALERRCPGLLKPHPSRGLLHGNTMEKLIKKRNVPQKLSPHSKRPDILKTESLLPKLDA

Row | Structure (SMILES) | Ki [nM]
1 | CC1CCN(c2nc(-c3cnc(N)nc3)nc3c2nc2n3CCOC2(C)C)C1 (stereo not shown) [Example 27, 5-[8,8-Dimethyl-1-(3-methyl-pyrrolidin-1-yl)-5,6-dihydro-8H-7-oxa-2,4,4b,9-tetraaza-fluoren-3-yl]-pyrimidin-2-ylamine] | 299
2 | CC1(C)OCCn2c1nc1c(N3C[C@@H](F)[C@@H](F)C3)nc(-c3cnc(N)nc3)nc12 [Example 29, 5-[1-(cis-3,4-Difluoro-pyrrolidin-1-yl)-8,8-dimethyl-5,6-dihydro-8H-7-oxa-2,4,4b,9-tetraaza-fluoren-3-yl]-pyrimidin-2-ylamine] | 297
3 | CC1(C)CN(c2nc(-c3cnc(N)nc3)nc3c2nc2n3CCOC2(C)C)C1 [Example 31, 5-[1-(3,3-Dimethyl-azetidin-1-yl)-8,8-dimethyl-5,6-dihydro-8H-7-oxa-2,4,4b,9-tetraaza-fluoren-3-yl]-pyrimidin-2-ylamine] | 424
4 | CC1(C)OCCn2c1nc1c(N3CC4CC3C4)nc(-c3cnc(N)c(F)c3)nc12 [Example 36, 5-[1-(2-Aza-bicyclo[2.1.1]hex-2-yl)-8,8-dimethyl-5,6-dihydro-8H-7-oxa-2,4,4b,9-tetraaza-fluoren-3-yl]-3-fluoro-pyridin-2-ylamine] | 444
5 | CC1(C)OCCn2c1nc1c(N3CC4CCC3C4)nc(-c3cnc4ccnn4c3)nc12 (stereo not shown) [Example 37, 1-(2-Aza-bicyclo[2.2.1]hept-2-yl)-8,8-dimethyl-3-pyrazolo[1,5-a]pyrimidin-6-yl-5,6-dihydro-8H-7-oxa-2,4,4b,9-tetraaza-fluorene] | 663
6 | CC1(C)OCCn2c1nc1c(N3CC4CC3C4)nc(-c3cnc4ccnn4c3)nc12 [Example 38, 1-(2-Aza-bicyclo[2.1.1]hex-2-yl)-8,8-dimethyl-3-pyrazolo[1,5-a]pyrimidin-6-yl-5,6-dihydro-8H-7-oxa-2,4,4b,9-tetraaza-fluorene] | 280

The next molecules have a lower Ki than those just listed; values first:

Row | Ki [nM] | Structure (SMILES)
7 | 210 | C[C@@H]1CCCN1c1nc(-c2cnc(N)nc2)nc2c1nc1n2CCOC1(C)C [Example 26, 5-[8,8-Dimethyl-1-((R)-2-methyl-pyrrolidin-1-yl)-5,6-dihydro-8H-7-oxa-2,4,4b,9-tetraaza-fluoren-3-yl]-pyrimidin-2-ylamine]
8 | 245 | CC1(C)OCCn2c1nc1c(N3CCC(C(F)(F)F)C3)nc(-c3cnc(N)nc3)nc12 (stereo not shown) [Example 28, 5-[8,8-Dimethyl-1-(3-trifluoromethyl-pyrrolidin-1-yl)-5,6-dihydro-8H-7-oxa-2,4,4b,9-tetraaza-fluoren-3-yl]-pyrimidin-2-ylamine]
9 | 10.2 | Cc1c[nH]c2ncc(-c3nc(N4CCC5(COC5)C4)c4nc5n(c4n3)CCOC5(C)C)cc12 [Example 30, 8,8-Dimethyl-3-(3-methyl-1H-pyrrolo[2,3-b]pyridin-5-yl)-1-(2-oxa-6-aza-spiro[3.4]oct-6-yl)-5,6-dihydro-8H-7-oxa-2,4,4b,9-tetraaza-fluorene]
10 | 13.1 | Cc1c[nH]c2ncc(-c3nc(N4CC(O)C4)c4nc5n(c4n3)CCOC5(C)C)cc12 [Example 32, 1-[8,8-Dimethyl-3-(3-methyl-1H-pyrrolo[2,3-b]pyridin-5-yl)-5,6-dihydro-8H-7-oxa-2,4,4b,9-tetraaza-fluoren-1-yl]-azetidin-3-ol]
11 | 90.3 | CC1(C)OCCn2c1nc1c(N3CC4CCC3C4)nc(-c3cnc(N)nc3)nc12 (stereo not shown) [Example 33, 5-[1-(2-Aza-bicyclo[2.2.1]hept-2-yl)-8,8-dimethyl-5,6-dihydro-8H-7-oxa-2,4,4b,9-tetraaza-fluoren-3-yl]-pyrimidin-2-ylamine]
12 | 31.8 | Cc1c[nH]c2ncc(-c3nc(N4CC5CCC4C5)c4nc5n(c4n3)CCOC5(C)C)cc12 (stereo not shown) [Example 34, 1-(2-Aza-bicyclo[2.2.1]hept-2-yl)-8,8-dimethyl-3-(3-methyl-1H-pyrrolo[2,3-b]pyridin-5-yl)-5,6-dihydro-8H-7-oxa-2,4,4b,9-tetraaza-fluorene]
13 | 235 | CC1(C)OCCn2c1nc1c(N3CC4CC3C4)nc(-c3cnc(N)c(Cl)c3)nc12 [Example 35, 5-[1-(2-Aza-bicyclo[2.1.1]hex-2-yl)-8,8-dimethyl-5,6-dihydro-8H-7-oxa-2,4,4b,9-tetraaza-fluoren-3-yl]-3-chloro-pyridin-2-ylamine]
